The text below walks through data of patent US20240158394A1, “NEK7 INHIBITORS” (Halia Therapeutics, Inc., priority 2022, published 2024).

The test system of assay [1] is IL-1β release. Description: IL-1β Release Assay. The format is cell-based. Conditions: Homo sapiens; PMA-treated THP-1 cells, 250 ng/mL LPS then 20 μM nigericin; cleaved IL-1β in media. The procedure:
Approximately 1.5 million THP-1 cells were plated in each well of a 6-well TC plate and incubated with 40 nM PMA in RPMI (10% FBS, 1% Penstrep) for 24 hours. The media was then removed, and cells were rested in RPMI (10% FBS, 1% Penstrep) for 24 hours after which time the media was removed and cells were pre-treated for 2 hours with various concentrations of compounds of interest (typically serial 3-fold dilution in RPMI+5% FBS, concentrations ranging from 1 μM to 0.5 nM) in RPMI (5% FBS). The media was again removed, and cells were incubated with 250 ng/mL LPS and compounds of interest (concentrations as above) in RMPI (5% FBS) for 2 hours. The media was removed for a last time and cells were incubated with 20 μM nigericin and compounds of interest (concentrations as above) in Opti-MEM for 30 minutes. Cell media was then collected and the amount of cleaved IL-1β was determined using a JESS instrument (Protein Simple) and standard protocols. Cleaved Il-1β antibody was obtained from Cell Signaling (catalogue #83186S) and was used at 1:20 dilution in antibody diluent 2. Protein Simple 1× anti-Rabbit HRP secondary antibody was used along with Protein Simple luminol and peroxide for chemiluminescent detection. Primary antibody incubation time was increased from 30 minutes to 60 minutes.

For assay [2], the target named is full-length recombinant human NEK7 (Homo sapiens (Human), UniProt Q8TDX7). In words: NEK7 Enzymatic Assay. The format is biochemical. Conditions: casein substrate, [33P]-ATP, 2 hours at room temperature. An outline of the steps:
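GST-tagged full-length human NEK7 (Sf9-expressed) with 1 mg/mL casein in HEPES pH 7.5/MgCl2 buffer, 1% DMSO; compounds 10 μM–0.5 nM preincubated 20 min at RT. Reaction started with [^33P]-ATP, 2 h at RT, P81 filter radioactivity read; IC50 from % activity remaining versus vehicle.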

As usually defined, the IC50 is the concentration that inhibits the measured activity by half.

Molecules are shown by their SMILES. A value given as a limit tells only on which side of the number the result lay.

Chain of full-length recombinant human NEK7 (Q8TDX7 whole entry): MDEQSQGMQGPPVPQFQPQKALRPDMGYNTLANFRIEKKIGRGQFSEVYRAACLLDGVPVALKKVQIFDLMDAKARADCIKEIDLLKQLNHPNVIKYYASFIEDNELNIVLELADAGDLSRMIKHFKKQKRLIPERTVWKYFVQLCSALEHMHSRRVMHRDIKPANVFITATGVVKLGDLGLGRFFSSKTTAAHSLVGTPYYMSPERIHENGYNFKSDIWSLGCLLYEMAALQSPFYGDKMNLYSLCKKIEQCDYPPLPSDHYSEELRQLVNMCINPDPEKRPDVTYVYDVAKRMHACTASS

`CN1CCN(Cc2ccc(NC(=O)Nc3ccc(-c4cn(C5CC5)c5ncnc(N)c45)c4cnoc34)cc2C(F)(F)F)CC1` [Example I-69, 1-(4-(4-amino-7-cyclopropyl-7H-pyrrolo[2,3-d]pyrimidin-5-yl)benzo[d]isoxazol-7-yl)-3-(4-((4-methylpiperazin-1-yl)methyl)-3-(trifluorometh-yl)phenyl)urea]: the 50% inhibitory concentration (IC50) in assay [1] is more than 1000 nM; in assay [2], less than 200 nM.
In the same order, the values of `CC(C)(C)c1cc(NC(=O)Nc2ccc(-c3cn(C4CC4)c4ncnc(N)c34)c3ccoc23)n(-c2ccccc2)n1` [Example I-62, 1-(4-(4-amino-7-cyclopropyl-7H-pyrrolo[2,3-d]pyrimidin-5-yl)benzofuran-7-yl)-3-(3-(tert-butyl)-1-phenyl-1H-pyrazol-5-yl)urea] are less than 100 nM and 500 to 2000 nM.
In the same order, the values of `Nc1ncnc2c1c(-c1ccc(NC(=O)Nc3cc(C4(C(F)(F)F)CC4)no3)c3nccn13)cn2C1CC1` [Example I-22, 1-(5-(4-amino-7-cyclopropyl-7H-pyrrolo[2,3-d]pyrimidin-5-yl)imidazo[1,2-a]pyridin-8-yl)-3-(3-(1-(trifluoromethyl)-cyclopropyl)isoxazol-5-yl)-urea] are less than 100 nM and less than 200 nM.
In the same order, the values of `CC(C)(C)c1cc(NC(=O)Nc2ccc(-c3cn(C4CC4)c4ncnc(N)c34)c3ccoc23)on1` [Example I-63, 1-(4-(4-amino-7-cyclopropyl-7H-pyrrolo[2,3-d]pyrimidin-5-yl)benzofuran-7-yl)-3-(3-(tert-butyl)isoxazol-5-yl)urea] are 250 to 1000 nM and 500 to 2000 nM.
For the compound `CN1CCN(Cc2ccc(NC(=O)Nc3ccc(-c4cn(C5CC5)c5ncnc(N)c45)c4ccncc34)cc2C(F)(F)F)CC1` [Example I-9, 1-(5-(4-amino-7-cyclopropyl-7H-pyrrolo[2,3-d]pyrimidin-5-yl)isoquinolin-8-yl)-3-(4-((4-methylpiperazin-1-yl)-methyl)-3-(trifluoromethyl)-phenyl)urea], the figures for the IC50 in assay [1] and in assay [2] were less than 100 nM and less than 200 nM, respectively.
The matching figures for `CN1CCN(Cc2ccc(NC(=O)Nc3ccc(-c4cn(C5CC5)c5ncnc(N)c45)c4ccoc34)cc2C(F)(F)F)CC1` [Example I-66, 1-(4-(4-amino-7-cyclopropyl-7H-pyrrolo[2,3-d]pyrimidin-5-yl)benzofuran-7-yl)-3-(4-((4-methylpiperazin-1-yl)-methyl)-3-(trifluoromethyl)-phenyl)urea]: less than 100 nM and 200 to 500 nM.
The matching figures for `Nc1ncnc2c1c(-c1ccc(NC(=O)Nc3cc(C4(C(F)(F)F)CC4)on3)c3ncccc13)cn2C1CC1` [Example I-4, 1-(5-(4-amino-7-cyclopropyl-7H-pyrrolo[2,3-d]pyrimidin-5-yl)quinolin-8-yl)-3-(5-(1-(trifluoromethyl)cyclopropyl)-isoxazol-3-yl)urea]: more than 1000 nM and more than 2000 nM.
For `CN1CCN(Cc2ccc(NC(=O)Nc3ccc(-c4cn(C5CC5)c5ncnc(N)c45)n4ccnc34)cc2C(F)(F)F)CC1` [Example I-34, 1-(5-(4-amino-7-cyclopropyl-7H-pyrrolo[2,3-d]pyrimidin-5-yl)imidazo[1,2-a]pyridin-8-yl)-3-(4-((4-methylpiperazin-1-yl)methyl)-3-(trifluorometh-yl)phenyl)urea], the IC50 in assay [1] was less than 100 nM; in assay [2], less than 200 nM.
As to `CN1CCN(Cc2ccc(NC(=O)Nc3ccc(-c4cn(C5CC5)c5ncnc(N)c45)n4cc(C(F)(F)F)nc34)cc2C(F)(F)F)CC1` [Example I-47, 1-(5-(4-amino-7-cyclopropyl-7H-pyrrolo[2,3-d]pyrimidin-5-yl)-2-(trifluoromethyl)-imidazo[1,2-a]pyridin-8-yl)-3-(4-((4-methylpiperazin-1-yl)-methyl)-3-(trifluoromethyl)-phenyl)urea], the values for the IC50 in assay [1] and in assay [2] were less than 100 nM and more than 2000 nM, respectively.
The matching figures for `CN1CCC(Oc2ccc(NC(=O)Nc3ccc(-c4cn(C5CC5)c5ncnc(N)c45)n4ccnc34)cc2C(F)(F)F)CC1` [Example I-37, 1-(5-(4-amino-7-cyclopropyl-7H-pyrrolo[2,3-d]pyrimidin-5-yl)imidazo[1,2-a]pyridin-8-yl)-3-(4-((1-methylpiperidin-4-yl)oxy)-3-(trifluorometh-yl)phenyl)urea]: less than 100 nM and less than 200 nM.
The matching figures for `Nc1ncnc2c1c(-c1ccc(NC(=O)Nc3cc(C4(C(F)(F)F)CC4)on3)c3cnccc13)cn2C1CC1` [Example I-8, 1-(5-(4-amino-7-cyclopropyl-7H-pyrrolo[2,3-d]pyrimidin-5-yl)isoquinolin-8-yl)-3-(5-(1-(trifluoromethyl)cyclopropyl)-isoxazol-3-yl)urea]: 100 to 250 nM and less than 200 nM.
For the compound `Nc1ncnc2c1c(-c1ccc(NC(=O)Nc3cc(C4(C(F)(F)F)CC4)on3)c3nccn13)cn2C1CC1` [Example I-32, 1-(5-(4-amino-7-cyclopropyl-7H-pyrrolo[2,3-d]pyrimidin-5-yl)imidazo[1,2-a]pyridin-8-yl)-3-(5-(1-(trifluoromethyl)-cyclopropyl)isoxazol-3-yl)-urea], the IC50 in assay [1] is more than 1000 nM; in assay [2], less than 200 nM.
In the same order, the values of `Nc1ncnc2c1c(-c1ccc(NC(=O)Nc3cc(C4(C(F)(F)F)CC4)on3)c3oncc13)cn2C1CC1` [Example I-68, 1-(4-(4-amino-7-cyclopropyl-7H-pyrrolo[2,3-d]pyrimidin-5-yl)benzo[d]isoxazol-7-yl)-3-(5-(1-(trifluoromethyl)cyclo-propyl)isoxazol-3-yl)urea] are 100 to 250 nM and less than 200 nM.
The matching figures for `Nc1ncnc2c1c(-c1ccc(NC(=O)Nc3cc(C4(C(F)(F)F)CC4)on3)c3nonc13)cn2C1CC1` [Example I-77, 1-(7-(4-amino-7-cyclopropyl-7H-pyrrolo[2,3-d]pyrimidin-5-yl)benzo[c][1,2,5]oxadiazol-4-yl)-3-(5-(1-(trifluoromethyl)-cyclopropyl)isoxazol-3-yl)urea]: less than 100 nM and less than 200 nM.
Consider `CN1CCN(Cc2ccc(NC(=O)Nc3ccc(-c4cn(C5CC5)c5ncnc(N)c45)c4c3OCC4)cc2C(F)(F)F)CC1` [Example I-53, 1-(4-(4-amino-7-cyclopropyl-7H-pyrrolo[2,3-d]pyrimidin-5-yl)-2,3-dihydrobenzofuran-7-yl)-3-(4-((4-methylpiperazin-1-yl)methyl)-3-(trifluorometh-yl)phenyl)urea], for which the figures for the IC50 in assay [1] and in assay [2] were less than 100 nM and less than 200 nM, respectively.
The matching figures for `Nc1ncnc2c1c(-c1ccc(NC(=O)Nc3cc(C4(C(F)(F)F)CC4)on3)c3occc13)cn2C1CC1` [Example I-65, 1-(4-(4-amino-7-cyclopropyl-7H-pyrrolo[2,3-d]pyrimidin-5-yl)benzofuran-7-yl)-3-(5-(1-(trifluoromethyl)cyclopropyl)-isoxazol-3-yl)urea]: more than 1000 nM and 500 to 2000 nM.
The matching figures for `CN1CCN(Cc2ccc(NC(=O)Nc3ccc(-c4cn(C5CC5)c5ncnc(N)c45)c4ncoc34)cc2C(F)(F)F)CC1` [Example I-72, 1-(4-(4-amino-7-cyclopropyl-7H-pyrrolo[2,3-d]pyrimidin-5-yl)benzo[d]oxazol-7-yl)-3-(4-((4-methylpiperazin-1-yl)-methyl)-3-(trifluoromethyl)-phenyl)urea]: more than 1000 nM and 500 to 2000 nM.
In the same order, the values of `Nc1ncnc2c1c(-c1ccc(NC(=O)Nc3cc(C4(C(F)(F)F)CC4)on3)c3c1CCO3)cn2C1CC1` [Example I-52, 1-(4-(4-amino-7-cyclopropyl-7H-pyrrolo[2,3-d]pyrimidin-5-yl)-2,3-dihydrobenzofuran-7-yl)-3-(5-(1-(trifluorometh-yl)cyclopropyl)isoxazol-3-yl)urea] are 250 to 1000 nM and 200 to 500 nM.
As for `CC(C)(C)c1cc(NC(=O)Nc2ccc(-c3cn(C4CC4)c4ncnc(N)c34)c3nonc23)on1` [Example I-74, 1-(7-(4-amino-7-cyclopropyl-7H-pyrrolo[2,3-d]pyrimidin-5-yl)benzo[c][1,2,5]oxadiazol-4-yl)-3-(3-(tert-butyl)isoxazol-5-yl)urea], the IC50 in assay [1] is less than 100 nM; in assay [2], less than 200 nM.
The matching figures for `CN1CCN(Cc2ccc(NC(=O)Nc3ccc(-c4nn(C5CC5)c5ncnc(N)c45)n4ccnc34)cc2C(F)(F)F)CC1` [Example I-98, 1-(5-(4-amino-1-cyclopropyl-1H-pyrazolo[3,4-d]pyrimidin-3-yl)imidazo[1,2-a]pyridin-8-yl)-3-(4-((4-methylpiperazin-1-yl)methyl)-3-(trifluorometh-yl)phenyl)urea]: less than 100 nM and less than 200 nM.
